Each structure is given as a SMILES string.

Experimental findings from patent US4873233A, “17-Substituted androsta-1,4-dien-3-one derivatives” (Farmitalia Carlo Erba S.p.a., priority 1987, dated 1989) are described below.

In this experiment the target is T1, androgen receptor (Rattus norvegicus, UniProt P15207).
T1 sequence (P15207 1-902): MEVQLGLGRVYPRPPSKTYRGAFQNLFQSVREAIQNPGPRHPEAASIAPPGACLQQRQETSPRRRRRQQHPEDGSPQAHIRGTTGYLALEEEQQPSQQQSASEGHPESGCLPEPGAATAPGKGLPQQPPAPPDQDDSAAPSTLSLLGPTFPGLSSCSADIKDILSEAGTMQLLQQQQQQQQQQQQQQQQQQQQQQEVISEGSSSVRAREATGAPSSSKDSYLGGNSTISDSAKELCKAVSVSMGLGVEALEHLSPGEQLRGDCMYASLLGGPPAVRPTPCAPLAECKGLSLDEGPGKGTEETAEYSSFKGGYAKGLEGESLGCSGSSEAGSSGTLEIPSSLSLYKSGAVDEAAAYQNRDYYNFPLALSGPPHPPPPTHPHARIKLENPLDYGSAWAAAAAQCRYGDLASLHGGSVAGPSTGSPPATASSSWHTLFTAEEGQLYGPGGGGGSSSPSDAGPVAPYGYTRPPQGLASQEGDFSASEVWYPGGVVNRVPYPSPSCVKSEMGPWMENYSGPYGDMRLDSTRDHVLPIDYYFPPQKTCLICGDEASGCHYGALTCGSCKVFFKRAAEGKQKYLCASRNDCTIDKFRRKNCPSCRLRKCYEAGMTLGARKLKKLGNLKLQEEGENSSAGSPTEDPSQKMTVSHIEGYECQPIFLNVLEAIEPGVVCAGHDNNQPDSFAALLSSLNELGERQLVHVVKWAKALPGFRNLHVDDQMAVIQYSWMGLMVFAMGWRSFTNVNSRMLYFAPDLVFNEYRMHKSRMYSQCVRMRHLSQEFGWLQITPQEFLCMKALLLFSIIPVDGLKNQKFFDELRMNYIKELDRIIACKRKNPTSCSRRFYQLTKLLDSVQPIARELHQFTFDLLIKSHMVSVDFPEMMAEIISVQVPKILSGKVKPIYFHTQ
Put plainly: Binding affinity to cytoplasmic androgen (rat prostate) receptors, dextran-coated charcoal adsorption technique.

Description: Binding affinity to cytoplasmic androgen (rat prostate) receptors was determined by standard dextran-coated charcoal adsorption technique (Raynaud J. P. et al. J. Steroid. Biochem. 6, 615-622, 1975).
Prostatic tissue, obtained from both adrenalectomized and orchidectomized Sprague-Dawley rats, was homogenized (1:10 weight:vol ratio) in 10 mM Tris-HCl PH 7.4, containing 1.5 nM EDTA and 1 mM dithiothreitol, in motor driven tissue grinders. The homogenate was centrifuged at 105,000×g for 1 h at 2° C. Aliquots of cytosol (0.2 ml) were incubated for 2 h at 0° C. with various concentrations of the test compounds, in duplicate, and a fixed amount of [^3 H]-5α-dihydrotestosterone (DHT, final concentration 1 nM in 0.4 ml of incubation volume). Then, free radioactivity was adsorbed on 0.2 ml of dextran-coated charcoal suspension and after centrifugation at 1,500×g for 10 min, the bound radioactivity in the supernatant was determined by liquid scintillation in RIaluma.

`C=C1C[C@H]2[C@@H]3CC[C@H](O)[C@@]3(C)CC[C@@H]2[C@@]2(C)C=CC(=O)C=C12` [6-methylenandrosta-1,4-diene-17β-ol-3-one]: the “affinity to the androgen receptor (in words)” value is reported as “very high affinity”. Besides, under “versus 6-methylenandrosta-1,4-diene-3,17-dione”, the “times more potent than the correspondent 17-cheto-derivative (androgen receptor affinity)” value came out at 76 times.
